The values that follow are results of earlier work, collected in publication PMC12697872, “Rethinking the AI Paradigm for Solubility Prediction of Drug‑Like Compounds with Dual‐Perspective Modeling and Experimental Validation” (Advanced Science, 2025).

Molecules are shown by their SMILES.

The conditions of the first series: experimental aqueous solubility as logS, sheet "DrugBank" of Supplement 2; ref DrugBank; cited from earlier work.
In the case of `CC(C)NCC1CCc2cc(CO)c([N+](=O)[O-])cc2N1` (stereo not drawn) [Oxamniquine], the ex_logS is on record as -2.532.

Take `C[C@]12C/C(=C/O)C(=O)C[C@@H]1CC[C@@H]1[C@@H]2CC[C@@]2(C)[C@H]1CC[C@]2(C)O` [Oxymetholone]: the ex_logS is recorded as -4.805. `CN1CCCN=C1COC(=O)C(O)(c1ccccc1)C1CCCCC1` (stereo not drawn) [Oxyphencyclimine]: the ex_logS was -4.717. For the compound `O=Cc1ccc(O)cc1` [P-Hydroxybenzaldehyde], the ex_logS is recorded as -1.16. With `CCC1(C)OC(=O)N(C)C1=O` (stereo not drawn) [Paramethadione], the ex_logS is -1.272. Turning to `CN1C(=O)CC(c2ccccc2)C1=O` (stereo not drawn) [Phensuximide], the ex_logS is recorded as -1.431. Turning to `CNC(=O)Oc1ccc2c(c1)[C@]1(C)CCN(C)[C@@H]1N2C` [Physostigmine], the ex_logS is reported as -1.55. With `C[C@]12CC[C@H](O)CC1=CC[C@@H]1[C@@H]2CC[C@]2(C)C(=O)CC[C@@H]12` [Prasterone], the ex_logS was -3.657. In the case of `O=C(C1CCCCC1)N1CC(=O)N2CCc3ccccc3C2C1` (stereo not drawn) [Praziquantel], the ex_logS is -2.893. As for `CCCNC(C)C(=O)Nc1ccccc1C` (stereo not drawn) [Prilocaine], the ex_logS is on record as -2.61. Take `NC(=O)CCC/N=C(\c1ccc(Cl)cc1)c1cc(F)ccc1O` [Progabide]: the ex_logS is listed as -3.674. With `CC(C)NCC(O)COc1cccc2ccccc12` (stereo not drawn) [Propranolol], the ex_logS is -3.624. On to `Cc1ncc(CO)c(C=O)c1O` [Pyridoxal], for which the ex_logS is 0.4758. For the compound `CO[C@H]1/C=C/O[C@@]2(C)Oc3c(C)c(O)c4c(c3C2=O)C2=NC3(CCN(CC(C)C)CC3)NC2=C(NC(=O)/C(C)=C\C=C\[C@H](C)[C@H](O)[C@@H](C)[C@@H](O)[C@@H](C)[C@H](OC(C)=O)[C@@H]1C)C4=O` [Rifabutin], the ex_logS is listed as -3.649. For `Nc1ccc(S(=O)(=O)Nc2ncccn2)cc1` [Sulfadiazine], the ex_logS was -3.512. Take `CP(=O)(O)C1=CCNCC1` [TPMPA]: the ex_logS is on record as -1. Consider `C[C@]1(Cn2ccnn2)[C@H](C(=O)O)N2C(=O)C[C@H]2S1(=O)=O` [Tazobactam], for which the ex_logS is on record as -0.7786. `Cn1nnc2c(C(N)=O)ncn2c1=O` [Temozolomide]: the ex_logS was -1.581. As to `C[C@]12C=CC(=O)C=C1CC[C@@H]1[C@@H]2CC[C@]2(C)OC(=O)CC[C@@H]12` [Testolactone], the ex_logS is reported as -4.04.

Regarding `O=C1CCC(N2C(=O)c3ccccc3C2=O)C(=O)N1` (stereo not drawn) [Thalidomide], the ex_logS is given as -2.676. Take `Cn1c(=O)c2[nH]cnc2n(C)c1=O` [Theophylline]: the ex_logS is on record as -1.389. Turning to `c1ccc2[nH]c(-c3cscn3)nc2c1` [Thiabendazole], the ex_logS is -3.605. On to `C=CCC1(C(C)CCC)C(=O)N=C(S)NC1=O` (stereo not drawn) [Thiamylal], for which the ex_logS is -3.7117. With `Cc1cccc(N(C)C(=S)Oc2ccc3ccccc3c2)c1` [Tolnaftate], the ex_logS is listed as -6.641.

The series is the same for the next values; noted with them: experimental aqueous solubility as logS, sheet "DrugBank"; ref DrugBank database; cited from earlier work.
Regarding `C[C@@H]1O[C@@H](O[C@H]2C[C@@H](O)[C@]3(CO)[C@H]4[C@H](O)C[C@]5(C)[C@@H](C6=CC(=O)OC6)CC[C@]5(O)[C@@H]4CC[C@]3(O)C2)[C@H](O)[C@H](O)[C@H]1O` [Ouabain], the ex_logS is -1.754.

As for `Cc1onc(-c2ccccc2)c1C(=O)N[C@@H]1C(=O)N2[C@@H]1SC(C)(C)[C@@H]2C(=O)O` [Oxacillin], the ex_logS is reported as -4.4606. In the case of `CN1CC[C@]23c4c5ccc(O)c4O[C@H]2C(=O)CC[C@@]3(O)[C@H]1C5` [Oxymorphone], the ex_logS is -1.099. In the case of `CN(C)[C@@H]1C(O)=C(C(N)=O)C(=O)[C@@]2(O)C(O)=C3C(=O)c4c(O)cccc4[C@@](C)(O)[C@H]3[C@H](O)[C@@H]12` [Oxytetracycline], the ex_logS was -3.168.

For `CC1(C)CCC(C)(C)c2cc(Cn3cccn3)c(/C=C/c3ccc(C(=O)O)cc3)cc21` [Palovarotene], the ex_logS was -7.016.

Turning to `Nc1nc2c(ncn2CCC(CO)CO)c(=O)[nH]1` [Penciclovir], the ex_logS is reported as -2.173. Regarding `OC[C@H]1O[C@@H](n2cnc3c2NC=NC[C@H]3O)C[C@@H]1O` [Pentostatin], the ex_logS was -0.9514. As for `C1CCC(C(CC2CCCCN2)C2CCCCC2)CC1` (stereo not drawn) [Perhexiline], the ex_logS is listed as -6.659. In the case of `NNCCc1ccccc1` [Phenelzine], the ex_logS is -0.6703. For the compound `CCC(c1ccccc1)c1c(O)c2ccccc2oc1=O` (stereo not drawn) [Phenprocoumon], the ex_logS is given as -4.337.

Turning to `N[C@@H](Cc1ccccc1)C(=O)O` [Phenylalanine], the ex_logS is recorded as -0.7882. As to `OCCc1ccccc1` [Phenylethyl alcohol], the ex_logS was -0.7406. In the case of `O=c1[nH]c2ccccc2n1C1CCN(CCCC(c2ccc(F)cc2)c2ccc(F)cc2)CC1` [Pimozide], the ex_logS is -4.664.

Regarding `O=C(CCBr)N1CCN(C(=O)CCBr)CC1` [Pipobroman], the ex_logS is -2.155.

Consider `CCCN(CCC)S(=O)(=O)c1ccc(C(=O)O)cc1` [Probenecid], for which the ex_logS is recorded as -4.022. On to `CCN(CC)C(C)CN1c2ccccc2Sc2ccccc21` (stereo not drawn) [Profenamine], for which the ex_logS is -5.654. As for `[H]/N=C(\N/C(=N/[H])Nc1ccc(Cl)cc1)NC(C)C` [Proguanil], the ex_logS is -3.211.

On to `CN(C)CCCN1c2ccccc2Sc2ccccc21` [Promazine], for which the ex_logS is given as -4.302. On to `CC(CN1c2ccccc2Sc2ccccc21)N(C)C` (stereo not drawn) [Promethazine], for which the ex_logS is recorded as -4.261. `CCC(=O)c1ccc2c(c1)N(CC(C)N(C)C)c1ccccc1S2` (stereo not drawn) [Propiomazine]: the ex_logS was -5.875. `C=CC1=C(C)c2cc3[nH]c(cc4nc(cc5[nH]c(cc1n2)c(C)c5CCC(=O)O)C(CCC(=O)O)=C4C)c(C)c3C=C` [Protoporphyrin]: the ex_logS is recorded as -3.522.

As to `CNCCCC1c2ccccc2C=Cc2ccccc21` [Protriptyline], the ex_logS is given as -5.404. For the compound `NC(=O)c1cnccn1` [Pyrazinamide], the ex_logS is -0.9142. In the case of `Cc1ncc(CO)c(CO)c1O` [Pyridoxine], the ex_logS was 0.1141. For the compound `CCc1nc(N)nc(N)c1-c1ccc(Cl)cc1` [Pyrimethamine], the ex_logS is -3.313. As for `O=C(O)c1ccc2ccccc2n1` [Quinaldic Acid], the ex_logS is listed as -1.092. For `O=C(O)c1cccnc1C(=O)O` [Quinolinic Acid], the ex_logS is listed as -1.182. As to `CCOC(=O)[C@H](CCc1ccccc1)N[C@@H](C)C(=O)N1[C@H](C(=O)O)C[C@@H]2CCC[C@@H]21` [Ramipril], the ex_logS is recorded as -5.076.

As to `CO[C@H]1/C=C/O[C@@]2(C)Oc3c(C)c(O)c4c(O)c(c(/C=N/N5CCN(C)CC5)c(O)c4c3C2=O)NC(=O)/C(C)=C\C=C\[C@H](C)[C@H](O)[C@@H](C)[C@@H](O)[C@@H](C)[C@H](OC(C)=O)[C@@H]1C` [Rifampicin], the ex_logS is -2.769. With `COC(=O)N(C)c1c(N)nc(-c2nn(Cc3ccccc3F)c3ncccc23)nc1N` [Riociguat], the ex_logS is on record as -5.024. In the case of `Cc1nc2n(c(=O)c1CCN1CCC(c3noc4cc(F)ccc34)CC1)CCCC2` [Risperidone], the ex_logS is given as -2.246.

Turning to `CCn1cc(C(=O)O)c(=O)c2ccc(-c3ccncc3)cc21` [Rosoxacin], the ex_logS is -4.149. In the case of `C[C@@H]1O[C@@H](OC[C@H]2O[C@@H](Oc3c(-c4ccc(O)c(O)c4)oc4cc(O)cc(O)c4c3=O)[C@H](O)[C@@H](O)[C@@H]2O)[C@H](O)[C@H](O)[C@H]1O` [Rutin], the ex_logS is -3.689.

For `NC(=O)c1ccccc1O` [Salicylamide], the ex_logS was -1.823. With `O=C(O)c1ccccc1O` [Salicylic acid], the ex_logS is -1.79. For `C=CC(=O)N1CCN(c2nc(=O)n(-c3c(C)ccnc3C(C)C)c3nc(-c4c(O)cccc4F)c(F)cc23)[C@@H](C)C1` [Sotorasib], the ex_logS is -4.272. `OC[C@H]1O[C@@](CO)(O[C@H]2O[C@H](CO)[C@@H](O)[C@H](O)[C@H]2O)[C@@H](O)[C@@H]1O` [Sucrose]: the ex_logS is given as 0.7878. Turning to `COc1cc(NS(=O)(=O)c2ccc(N)cc2)nc(OC)n1` [Sulfadimethoxine], the ex_logS is -2.957.

With `Nc1ccc(S(=O)(=O)Nc2ccnn2-c2ccccc2)cc1` [Sulfaphenazole], the ex_logS was -2.321. For `Nc1ccc(S(=O)(=O)Nc2nccs2)cc1` [Sulfathiazole], the ex_logS is listed as -2.835. Regarding `Nc1c2c(nc3ccccc13)CCCC2` [Tacrine], the ex_logS was -2.961. On to `Cn1nnc(-c2ccc(-c3ccc(N4C[C@H](CO)OC4=O)cc3F)cn2)n1` [Tedizolid], for which the ex_logS is reported as -3.569. Consider `CCC[C@H](NC(=O)[C@@H]1[C@H]2CCC[C@H]2CN1C(=O)[C@@H](NC(=O)[C@@H](NC(=O)c1cnccn1)C1CCCCC1)C(C)(C)C)C(=O)C(=O)NC1CC1` [Telaprevir], for which the ex_logS is recorded as -5.16. Consider `C[C@H](Cn1cnc2c(N)ncnc21)OCP(=O)(O)O` [Tenofovir], for which the ex_logS was -1.3311. Consider `CN1C(C(=O)Nc2ccccn2)=C(O)c2sccc2S1(=O)=O` [Tenoxicam], for which the ex_logS is recorded as -4.379. In the case of `CCC(=O)O[C@H]1CC[C@H]2[C@@H]3CCC4=CC(=O)CC[C@]4(C)[C@H]3CC[C@]12C` [Testosterone propionate], the ex_logS was -5.367.

As to `C[C@]12CC[C@H]3[C@@H](CCC4=CC(=O)CC[C@@]43C)[C@@H]1CC[C@@H]2O` [Testosterone], the ex_logS is -4.091. `Cn1cnc2c1c(=O)[nH]c(=O)n2C` [Theobromine]: the ex_logS is recorded as -2.737. Consider `COc1c(O[C@@H]2O[C@H](CO)[C@@H](O)[C@H](O)[C@H]2O)cc2c(c1OC)-c1ccc(SC)c(=O)cc1[C@@H](NC(C)=O)CC2` [Thiocolchicoside], for which the ex_logS is reported as -1.751. In the case of `CCCSc1nc(N[C@@H]2C[C@H]2c2ccc(F)c(F)c2)c2nnn([C@@H]3C[C@H](OCCO)[C@@H](O)[C@H]3O)c2n1` [Ticagrelor], the ex_logS is on record as -4.718. `Cc1ccc(C(=O)c2ccc(CC(=O)O)n2C)cc1` [Tolmetin]: the ex_logS is reported as -3.064.
